Results reported in patent US20250223281A1, “ANTIDIABETIC COMPOUNDS AND COMPOSITIONS” (REZUBIO PHARMACEUTICALS CO., LTD, priority 2022, published 2025).

Target: T1, GPR40 (Homo sapiens, UniProt O14842)
T1 construct: expressed in transfected cells; host or cells: HEK293 cells stably expressing GPR40 (Hygromycin selection)
Test: IP1 accumulation assay in HEK293 cells stably expressing GPR40
Format: cell-based
Procedure, shortened: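 HEK293 cells stably expressing human GPR40 were incubated with compounds (10-point, 3-fold dilution series) for 2 h at 37 °C, then IP1 was detected by HTRF (665/615 nm ratio). Effect was normalised to DMSO blank and AMG-1638 as 100%, and EC50 was derived from dose curves.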

[1] = IP1 accumulation, HEK293 cells stably expressing GPR40, 2 hours at 37° C., % effect relative to AMG-1638, table of Biological Example 1
[2] = Table A-8 (additional examples), obtained by methods of Biological Example 1
[3] = Tables A-1a to A-7b (structure-property relationship), obtained by methods of Biological Example 1

T1 sequence (O14842 whole entry): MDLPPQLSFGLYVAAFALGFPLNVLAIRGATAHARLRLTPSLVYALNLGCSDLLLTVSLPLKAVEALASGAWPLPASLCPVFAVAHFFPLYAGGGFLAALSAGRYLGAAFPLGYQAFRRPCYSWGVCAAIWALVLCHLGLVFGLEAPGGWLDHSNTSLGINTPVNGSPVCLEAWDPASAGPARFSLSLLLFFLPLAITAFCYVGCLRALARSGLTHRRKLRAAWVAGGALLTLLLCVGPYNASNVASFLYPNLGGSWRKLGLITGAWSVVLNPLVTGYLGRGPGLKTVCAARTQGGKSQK

`COc1ccc(C(=O)N(CC(C)(C)CCn2cc(CCCCCCCCCC(=O)NCC[N+](C)(CCC(=O)NCCN)CCC(=O)NCCN)nn2)c2cccc(C)n2)c(N2CCC(COc3cc([C@@H](CC(=O)O)C4CC4)ccn3)CC2)c1` [Example 201] showed an EC50 [1] of 44.6 nM, an EC50 [2] of 45 nM and an EC50 [3] of 45 nM.
Work on `COc1ccc(C(=O)N(CC(C)(C)CCn2cc(CCCCCCCCCCCCCCCC(=O)NCC[N+](C)(CCC(=O)NCCN)CCC(=O)NCCN)nn2)c2cccc(C)n2)c(N2CCC(COc3cc([C@@H](CC(=O)O)C4CC4)ccn3)CC2)c1` [Example 202] yielded an EC50 [1] of 0.16 nM, an EC50 [2] of 0.16 nM and an EC50 [3] of 0.16 nM.
`COc1ccc(C(=O)N(CC(C)(C)CCCCCCn2cc(CCCCCCCCC(=O)NCCCN(CC(=O)O)CC(=O)O)nn2)c2cccc(C)n2)c(N2CCC(COc3cc([C@@H](CC(=O)O)C4CC4)ccn3)CC2)c1` [Example 203] showed an EC50 [1] of 11.9 nM.
Work on `COc1ccc(C(=O)N(CC(C)(C)CCCCCCn2cc(CCCCCCCCCC(=O)NCCCN(CC(=O)O)CC(=O)O)nn2)c2cccc(C)n2)c(N2CCC(COc3cc([C@@H](CC(=O)O)C4CC4)ccn3)CC2)c1` [Example 204] yielded an EC50 [1] of 7 nM.
Compound `COc1ccc(C(=O)N(CC(C)(C)CCCCCCn2cc(CCCCCCCCCCCC(=O)NCCCN(CC(=O)O)CC(=O)O)nn2)c2cccc(C)n2)c(N2CCC(COc3cc([C@@H](CC(=O)O)C4CC4)ccn3)CC2)c1` [Example 205] has an EC50 [1] of 0.93 nM.
For `COc1ccc(C(=O)N(CC(C)(C)CCCCCCn2cc(CCCCCCCCCCCCCC(=O)NCCCN(CC(=O)O)CC(=O)O)nn2)c2cccc(C)n2)c(N2CCC(COc3cc([C@@H](CC(=O)O)C4CC4)ccn3)CC2)c1` [Example 206], the EC50 [1] was 0.59 nM.
In the case of `COc1ccc(C(=O)N(CC(C)(C)CCCCCCn2cc(CCCCCCCCC(=O)NCCC[N+](C)(CC(=O)[O-])CC(=O)O)nn2)c2cccc(C)n2)c(N2CCC(COc3cc([C@@H](CC(=O)O)C4CC4)ccn3)CC2)c1` (some centres unmarked) [Example 207], the EC50 [1] is reported as 20.5 nM.
In the case of `COc1ccc(C(=O)N(CC(C)(C)CCCCCCn2cc(CCCCCCCCCC(=O)NCCC[N+](C)(CC(=O)[O-])CC(=O)O)nn2)c2cccc(C)n2)c(N2CCC(COc3cc([C@@H](CC(=O)O)C4CC4)ccn3)CC2)c1` (some centres unmarked) [Example 208], the EC50 [1] is reported as 5.15 nM.
For `COc1ccc(C(=O)N(CC(C)(C)CCCCCCn2cc(CCCCCCCCCCCC(=O)NCCC[N+](C)(CC(=O)[O-])CC(=O)O)nn2)c2cccc(C)n2)c(N2CCC(COc3cc([C@@H](CC(=O)O)C4CC4)ccn3)CC2)c1` (some centres unmarked) [Example 209], the EC50 [1] was 1 nM.
In the case of `COc1ccc(C(=O)N(CC(C)(C)CCCCCCn2cc(CCCCCCCCCCCCCC(=O)NCCC[N+](C)(CC(=O)[O-])CC(=O)O)nn2)c2cccc(C)n2)c(N2CCC(COc3cc([C@@H](CC(=O)O)C4CC4)ccn3)CC2)c1` (some centres unmarked) [Example 210], the EC50 [1] is reported as 0.54 nM.
For `COc1ccc(C(=O)N(CC(C)(C)CCCCCCn2cc(CCCCC(=O)NCCC[N+](C)(CC(=O)[O-])CC(=O)O)nn2)c2cccc(C)n2)c(N2CCC(COc3cc([C@@H](CC(=O)O)C4CC4)ccn3)CC2)c1` (some centres unmarked) [Example 211], the EC50 [1] was 66.3 nM.
`COc1ccc(C(=O)N(CC(C)(C)CCCCCCn2cc(CCCCCCC(=O)NCCC[N+](C)(CC(=O)[O-])CC(=O)O)nn2)c2cccc(C)n2)c(N2CCC(COc3cc([C@@H](CC(=O)O)C4CC4)ccn3)CC2)c1` (some centres unmarked) [Example 212] was tested, and the EC50 [1] was 143 nM.
`COc1ccc(F)c(-c2ccc(COc3cccc([C@@H](CC(=O)O)C4CC4)c3)cc2CC(C)(C)Cn2cc(CCCCC(=O)NCCC[N+](C)(CC(=O)[O-])CC(=O)O)nn2)c1` (some centres unmarked) [Example 213] gave an EC50 [1] of 358 nM.
For `COc1ccc(C(=O)N(CC(C)(C)CCn2cc(CCCCCCCCC(=O)NCCCN(CC(=O)O)CC(=O)O)nn2)c2cccc(C)n2)c(N2CCC(COc3cc([C@@H](CC(=O)O)C4CC4)ccn3)CC2)c1` [Example 215], the EC50 [1] was 1360 nM and the EC50 [3] was 1360 nM.
`COc1ccc(C(=O)N(CC(C)(C)CCn2cc(CCCCCCCCCCCCCCCC(=O)NCCCN(CC(=O)O)CC(=O)O)nn2)c2cccc(C)n2)c(N2CCC(COc3cc([C@@H](CC(=O)O)C4CC4)ccn3)CC2)c1` [Example 216] gave an EC50 [1] of 0.48 nM and an EC50 [3] of 0.48 nM.
Compound `COc1ccc(C(=O)N(CC(C)(C)CCn2cc(CCCCCCCCC(=O)NCCC[N+](C)(CC(=O)[O-])CC(=O)O)nn2)c2cccc(C)n2)c(N2CCC(COc3cc([C@@H](CC(=O)O)C4CC4)ccn3)CC2)c1` (some centres unmarked) [Example 217] has an EC50 [1] of 683 nM and an EC50 [3] of 683 nM.
`COc1ccc(C(=O)N(CC(C)(C)CCn2cc(CCCCCCCCCCCCCCCC(=O)NCCC[N+](C)(CC(=O)[O-])CC(=O)O)nn2)c2cccc(C)n2)c(N2CCC(COc3cc([C@@H](CC(=O)O)C4CC4)ccn3)CC2)c1` (some centres unmarked) [Example 218] gave an EC50 [1] of 0.44 nM and an EC50 [3] of 0.44 nM.
`COc1ccc(F)c(-c2ccc(COc3cccc([C@@H](CC(=O)O)C4CC4)c3)cc2CC(C)(C)Cn2cc(CCCCC(=O)NCCN(CCC(=O)NCCN)CCC(=O)NCCN)nn2)c1` [Example 219] showed an EC50 [1] of over 10000 nM.
`COc1ccc(F)c(-c2ccc(COc3cccc([C@@H](CC(=O)O)C4CC4)c3)cc2CC(C)(C)Cn2cc(CCCCCCCCC(=O)NCCN(CCC(=O)NCCN)CCC(=O)NCCN)nn2)c1` [Example 220] showed an EC50 [1] of over 10000 nM and an EC50 [3] of over 10000 nM.
`COc1ccc(C(=O)N(CC(C)(C)CCn2cc(CCCCCCCCC=CCCCCCCCCC(=O)NCCC[N+]34CCN(CC3)CC4)nn2)c2cccc(C)n2)c(N2CCC(COc3cc([C@@H](CC(=O)O)C4CC4)ccn3)CC2)c1` [Example 221] showed an EC50 [1] of 0.98 nM.
